Calls of active or inactive are those of the source. No cut-off for these calls is given here.

Assay [1] deals with Nucleic Acid. In words: Induction of DNA intercalation using 5'-r(GUCCGCGGAC)2-3' at 250 uM by UV-vis spectrophotometric analysis. It is filed as nucleic-acid assay.
The nature of assay [2]: Binding affinity to 5'-d(GCGCGCGC)2-3' DNA assessed as change in melting temperature at 1:1 DNA to compound molar ratio by spectrophotometric analysis.
The test system of assay [3] is Nucleic Acid. In words: Induction of DNA intercalation using 5'-d(ATATATATATAT)2-3' at 250 uM by UV-vis spectrophotometric analysis. Format: nucleic-acid assay.
Assay [4] is described as follows: Binding affinity to 5'-r(GUCCGCGGAC)2-3' DNA assessed as change in melting temperature at 1:1 DNA to compound molar ratio by spectrophotometric analysis.
Assay [5] can be described thus: Binding affinity to 5'-d(GTCCGTCGGAC)-3'/5'-(GTCCGACGGAC)-3' DNA assessed as change in melting temperature at 1:1 DNA to compound molar ratio by spectrophotometric analysis.
Assay [6] has as its system Nucleic Acid. In words: Induction of DNA intercalation using 5'-d(GTAATATTAC)2-3' at 250 uM by UV-vis spectrophotometric analysis. Format: nucleic-acid assay.
Assay [7] has as its system Nucleic Acid. The assay can be described thus: Induction of DNA intercalation using 5'-d(GTCCGTCGGAC)-3'/5'-(GTCCGACGGAC)-3' at 250 uM by UV-vis spectrophotometric analysis. Format: nucleic-acid assay.
Assay [8] can be described thus: Binding affinity to 5'-d(ATATAGTATATA)-3'/5'-(TATATACTATAT)-3' DNA assessed as change in melting temperature at 1:1 DNA to compound molar ratio by spectrophotometric analysis.
The subject of assay [9] is Nucleic Acid. In words: Induction of DNA intercalation using 5'-r(GCGCGCGC)2-3' at 250 uM by UV-vis spectrophotometric analysis. Format: nucleic-acid assay.
Assay [10] is described as follows: Binding affinity to 5'-d(ATATATATATAT)2-3' DNA assessed as change in melting temperature at 1:1 DNA to compound molar ratio by spectrophotometric analysis.
A short description of assay [11]: Binding affinity to 5'-d(GTAATATTAC)2-3' DNA assessed as change in melting temperature at 1:1 DNA to compound molar ratio by spectrophotometric analysis.
Assay [12] can be described thus: Binding affinity to 5'-d(GTCCGCGGAC)2-3' DNA assessed as change in melting temperature at 1:1 DNA to compound molar ratio by spectrophotometric analysis.
For assay [13], the system named is Nucleic Acid. In words: Induction of DNA intercalation using 5'-d(ATATATGATATA)-3'/5'-(TATATCATATAT)-3' at 250 uM by UV-vis spectrophotometric analysis. It is filed as nucleic-acid assay.
Assay [14] is described as follows: Binding affinity to 5'-d(ATATATGATATA)-3'/5'-(TATATCATATAT)-3' DNA assessed as change in melting temperature at 1:1 DNA to compound molar ratio by spectrophotometric analysis.
Assay [15] deals with Nucleic Acid. The assay can be described thus: Induction of DNA intercalation using 5'-d(ATATAGTATATA)-3'/5'-(TATATACTATAT)-3' at 250 uM by UV-vis spectrophotometric analysis. It is filed as nucleic-acid assay.
Assay [16] has as its system Nucleic Acid. The assay can be described thus: Induction of DNA intercalation using 5'-d(GTCCGCGGAC)2-3' at 250 uM by UV-vis spectrophotometric analysis. Format: nucleic-acid assay.
A short description of assay [17]: Binding affinity to 5'-r(GCGCGCGC)2-3' DNA assessed as change in melting temperature at 1:1 DNA to compound molar ratio by spectrophotometric analysis.
The subject of assay [18] is Nucleic Acid. In words: Induction of DNA intercalation using 5'-d(GCGCGCGC)2-3' at 250 uM by UV-vis spectrophotometric analysis. Format: nucleic-acid assay.
Assay [19] deals with Nucleic Acid. The assay can be described thus: Induction of DNA intercalation using 5'-d(GTCCGCGGAC)2-3' at 1:0, 1:0.5, 1:1, 1:1.5, 1:2 DNA to compound molar ratio by CD spectroscopic analysis. Format: nucleic-acid assay.
The test system of assay [20] is Nucleic Acid. In words: Induction of DNA intercalation using 5'-d(CGATCG)2-3' by NMR analysis. It is filed as nucleic-acid assay.
Assay [21] deals with Nucleic Acid. The assay can be described thus: Induction of DNA intercalation using 5'-d(CGATCG)2-3' at 1:0.5 DNA to compound molar ratio by NMR analysis. Format: nucleic-acid assay.

`CN(C)CCN1C(=O)c2cccc3cc(Br)cc(c23)C1=O`: the outcome in the assay with Nucleic Acid [1], with Nucleic Acid [3], in the assay with Nucleic Acid [6], in the assay with Nucleic Acid [7], with Nucleic Acid [9] and in the assay on Nucleic Acid [13] was Active. Besides, the result with Nucleic Acid [15], in the assay on Nucleic Acid [16] and in the assay with Nucleic Acid [18] was Active. The ΔTm (in general, the change in melting temperature against a reference sample) in assay [2] stood at 9.5 °C; in [4] it was 2 °C; in assay [5] it was 0 °C; in [8], 10.8 °C; in assay [10], 0 °C; in assay [11], 6.3 °C. Besides, the results for the ΔTm in assay [12], in assay [14] and in assay [17] were 6 °C, 13.9 °C and 1.6 °C, respectively.

`Cc1cc2c3c(cccc3c1)C(=O)N(CCN(C)C)C2=O`: the result with Nucleic Acid [1], with Nucleic Acid [3], in the assay on Nucleic Acid [6], with Nucleic Acid [7], in the assay on Nucleic Acid [9] and in the assay with Nucleic Acid [13] was Active. The outcome with Nucleic Acid [15], with Nucleic Acid [16] and with Nucleic Acid [18] was Active. In addition, the ΔTm in [2] came to 3.2 °C; in assay [4], 0 °C; in assay [5], 0 °C; in [8], 0 °C; in assay [10] it was 0 °C; in assay [11] it was 0 °C. Moreover, the ΔTm is 2.7 °C in assay [12], 5.1 °C in [14] and 0 °C in assay [17].

Consider `CN(C)CCN1C(=O)c2cccc3cc(-c4ccccc4)cc(c23)C1=O`, for which the result in the assay with Nucleic Acid [1], with Nucleic Acid [3], with Nucleic Acid [6], in the assay with Nucleic Acid [7], in the assay with Nucleic Acid [9] and in the assay on Nucleic Acid [13] was Active. Further, the result in the assay on Nucleic Acid [15], in the assay on Nucleic Acid [16] and in the assay on Nucleic Acid [18] was Active. For the same molecule, the ΔTm stood at 0 °C in assay [2]; 0 °C in [4]; 0 °C in [5]; 5.8 °C in assay [8]; 0 °C in [10]; 0 °C in assay [11]. Also, the ΔTm in assay [12] is 0 °C; in assay [14] it was 1.3 °C; in assay [17], 0 °C.

On to `CN(C)CCN1C(=O)c2cccc3cc([N+](=O)[O-])cc(c23)C1=O`, for which the result in the assay on Nucleic Acid [1], in the assay with Nucleic Acid [3], with Nucleic Acid [6], in the assay with Nucleic Acid [7], in the assay with Nucleic Acid [9] and in the assay with Nucleic Acid [19] was Active. Further, the result with Nucleic Acid [13], in the assay on Nucleic Acid [15], in the assay on Nucleic Acid [20], in the assay with Nucleic Acid [16] and with Nucleic Acid [18] was Active. Moreover, the ΔTm in [2] was found to be 14.3 °C; in assay [4], 2.2 °C; in assay [5] it was 5 °C; in assay [8], 11.7 °C; in assay [10] it was 0 °C; in assay [11] it was 12.6 °C. The ΔTm came out at 13.3 °C in assay [12], 17.2 °C in assay [14] and 1.8 °C in assay [17].

`CC(C)Nc1cc2c3c(cccc3c1)C(=O)N(CCN(C)C)C2=O`: the outcome with Nucleic Acid [1], with Nucleic Acid [3], in the assay on Nucleic Acid [6], in the assay with Nucleic Acid [7], in the assay on Nucleic Acid [9] and with Nucleic Acid [13] was Active. Besides, the result in the assay with Nucleic Acid [15], with Nucleic Acid [16] and in the assay on Nucleic Acid [18] was Active. Moreover, the ΔTm in assay [2] turned out to be 7.9 °C; in [4], 1.1 °C; in assay [5], 2.1 °C; in assay [8], 0 °C; in [10], 0 °C; in assay [11] it was 7.3 °C. The ΔTm came to 0 °C in [12], 16.4 °C in [14] and 0 °C in [17].

For the molecule `CN(C)CCN1C(=O)c2cccc3cc(N)cc(c23)C1=O`, the result in the assay with Nucleic Acid [1], with Nucleic Acid [3], in the assay on Nucleic Acid [6], with Nucleic Acid [7], in the assay on Nucleic Acid [9] and in the assay with Nucleic Acid [21] was Active. Further, the outcome in the assay on Nucleic Acid [13], in the assay on Nucleic Acid [15], in the assay on Nucleic Acid [16] and with Nucleic Acid [18] was Active. For the same molecule, the ΔTm was determined as 16.9 °C in [2]; 1 °C in [4]; 0 °C in assay [5]; 10.1 °C in assay [8]; 0 °C in assay [10]; 11.6 °C in assay [11]. Also, the results for the ΔTm in [12], in [14] and in assay [17] were 5.1 °C, 14.6 °C and 1.1 °C, respectively.

For the origin of these results see ChEMBL document CHEMBL3585323, “Effect of intercalator substituent and nucleotide sequence on the stability of DNA- and RNA-naphthalimide complexes” (Bioorg Med Chem, 2015).
